Data from US20040223983A1, “Pharmaceutical preparations, use of these preparations and process for increasing the biovailability of pharmaceutical substances to be administered perorally” (priority 2002, published 2004).
In brackets after ≈: the same amount, converted by molar mass. Several values for one entry are separate records, joined by “and”; a condition that tells them apart may be missing. Equal entries are not always repeated. Where two headings read alike, the source gives them in different places.

How the values were obtained:
[1] = target: human, intestinal P-gp- transporters (Homo sapiens, UniProt P08183); assay: P-gp- transporter test (calcein AM, MATU cells); conditions: ratio of fluorescence intensity test solution to blank
Sequence of human, intestinal P-gp- transporters (P08183 whole entry): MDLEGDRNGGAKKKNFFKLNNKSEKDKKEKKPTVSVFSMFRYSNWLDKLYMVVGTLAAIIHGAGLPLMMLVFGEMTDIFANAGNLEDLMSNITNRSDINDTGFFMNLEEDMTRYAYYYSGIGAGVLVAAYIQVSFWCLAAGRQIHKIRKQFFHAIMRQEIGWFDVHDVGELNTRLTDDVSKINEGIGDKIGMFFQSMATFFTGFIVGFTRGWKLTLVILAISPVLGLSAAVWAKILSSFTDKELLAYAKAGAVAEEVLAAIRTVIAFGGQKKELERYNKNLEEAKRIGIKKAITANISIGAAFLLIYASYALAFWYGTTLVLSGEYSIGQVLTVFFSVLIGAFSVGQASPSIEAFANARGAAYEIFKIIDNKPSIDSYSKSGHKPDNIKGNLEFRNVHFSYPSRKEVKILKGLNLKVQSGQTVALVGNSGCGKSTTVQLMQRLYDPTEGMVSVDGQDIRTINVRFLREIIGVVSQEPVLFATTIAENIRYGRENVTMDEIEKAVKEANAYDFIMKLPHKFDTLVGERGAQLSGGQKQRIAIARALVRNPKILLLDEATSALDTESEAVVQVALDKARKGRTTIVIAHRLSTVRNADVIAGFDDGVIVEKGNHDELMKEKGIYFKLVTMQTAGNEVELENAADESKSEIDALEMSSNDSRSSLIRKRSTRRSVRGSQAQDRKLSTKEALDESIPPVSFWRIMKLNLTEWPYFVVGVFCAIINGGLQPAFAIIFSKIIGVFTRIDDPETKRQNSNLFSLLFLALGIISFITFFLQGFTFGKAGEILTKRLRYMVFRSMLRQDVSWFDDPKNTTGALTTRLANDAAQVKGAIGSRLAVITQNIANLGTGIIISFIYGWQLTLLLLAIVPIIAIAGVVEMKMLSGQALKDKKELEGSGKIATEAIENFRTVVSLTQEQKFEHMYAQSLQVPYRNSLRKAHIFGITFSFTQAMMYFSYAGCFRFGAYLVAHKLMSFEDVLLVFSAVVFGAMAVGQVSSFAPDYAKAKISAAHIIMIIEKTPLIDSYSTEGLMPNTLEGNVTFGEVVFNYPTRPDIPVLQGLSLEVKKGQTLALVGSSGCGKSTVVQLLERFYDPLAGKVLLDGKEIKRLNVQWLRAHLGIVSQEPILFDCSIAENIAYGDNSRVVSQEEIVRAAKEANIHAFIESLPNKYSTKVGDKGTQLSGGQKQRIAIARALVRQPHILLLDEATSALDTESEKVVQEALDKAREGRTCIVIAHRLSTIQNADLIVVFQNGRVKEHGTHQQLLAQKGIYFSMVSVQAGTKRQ
Source text: In this test, the activity to inhibit the transporters is characterized via ratio (R) that indicates the ratio of the fluorescence intensity of the test solution to the fluorescence intensity of the blank and is directly proportional to inhibiting the P-gp- transporters. Fluorescence intensity test solution corresponds to fluorescence intensity, measured at 485/535 nm (excitation or emission), of cells that contain test solution and calcein AM working solution.
For this purpose, a suspension of human breast cancer cell lines, MATU-cell lines (Max-Dellbrück-Centrum (MDC)-Berlin-Buch; 40,000 cells/well/200 μl) is first added to a microtiter plate (Greiner black 96 plates, clear bottom, sterile). […]
Then, the addition of calcein AM working solution (20 μl/well) to all wells is carried out, i.e., with and without test solution. […] After incubation is completed, the fluorescence is measured in a plate-fluorescence reader (Fluostar®, B&L Systems, Maarssen) at 485/535 nm (excitation or emission).
The following ratio: ratio (R) of the fluorescence intensity of the test solution to the fluorescence intensity of the blank is determined.
The fluorescence intensity of the test solution corresponds to the fluorescence intensity, measured at 485/535 nm (excitation or emission), of the cells that contain the test solution and the calcein AM working solution.

Lipophilicity (log P) = format: physicochemical
17β-HSD2 = target: T1, 17β-HSD2 (Homo sapiens, UniProt P37059); assay: Metabolic stability, in vitro 17β-HSD2 test on intestinal microsomes; format: in vitro ADME; conditions: % of starting value of AE2, n=2
T1 construct: Intestinal microsomes (InVitro Technologies); protein content: 24 mg/ml; tissue InVitro Technologies; host or cells: intestinal microsomes
T1 sequence (P37059 1-387): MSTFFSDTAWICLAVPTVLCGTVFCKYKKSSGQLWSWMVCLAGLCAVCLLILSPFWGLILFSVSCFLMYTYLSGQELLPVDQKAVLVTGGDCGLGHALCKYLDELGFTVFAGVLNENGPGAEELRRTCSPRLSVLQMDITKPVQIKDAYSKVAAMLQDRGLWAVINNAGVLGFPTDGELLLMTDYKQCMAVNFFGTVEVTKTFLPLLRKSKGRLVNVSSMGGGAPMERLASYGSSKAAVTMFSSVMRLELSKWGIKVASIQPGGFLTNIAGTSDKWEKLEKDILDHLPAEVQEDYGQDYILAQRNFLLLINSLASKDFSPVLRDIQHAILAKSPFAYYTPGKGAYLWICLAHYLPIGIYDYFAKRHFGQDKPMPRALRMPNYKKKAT
Source text: Pharmaceutical preparations according to the invention that contain steroids that have a secondary, beta-position hydroxyl group in 17-position of the sterane skeleton inhibit the 17β-HSD 2, so that less 17-keto-biotransformation product is produced. The inhibition potential is directly proportional to the mass proportion of the formulation according to the invention. […] Example 5; FIG. 3). It can be seen from this that formulations according to the invention are suitable to inhibit 17β-HSD 2.
17β-HSD2 test on microsomes of intestinal origin. Metabolic stability of 0.3 μM of AE2 in an intestinal microsome suspension and production of 17-ketone metabolites after 30 minutes based on the concentration (m/v) of a formulation according to the invention that contains Cremophor®EL and Transcutol®P, Smix 9:1, 20% (m/m), Miglyol®812.
A formulation according to the invention, produced analogously to Example 1a) and containing Cremophor®EL and Transcutol®P, Smix 9:1, 20% (m/m) Miglyol®812, is tested for its property to inhibit 17β-HSD2 in intestinal microsomes. 17β-HSD2 mediates the intestinal enzymatic dehydrogenation of an OH group in 17-position of the sterane skeleton to form a ketone group. An inhibition of the 17β-HSD2 is measured via a test substance AE2, which is the substrate of this enzyme, and is biotransformed into a 17-keto product. The ratio of the AE2 concentration and the 17-ketone-biotransformation product is determined at specific times (0, 10, 20, 30, 45 and 60 minutes) in each case for the starting-AE2 concentration in % (m/m).
For these tests, the following materials are used:
Na-Phosphate buffer: 100 mmol of Na2HPO4×2H2O and 100 mmol of NaH2PO4×H2O
Test substance solution of AE2: AE2 50 μmol in MeOH (in the test batch 0.3 μmol)
Formulation batches of the above-mentioned formulation according to the invention (% m/v): 0%, 0.00441%, 0.0147%, 0.0441%, 0.147% and 0.441% formulation in Na-phosphate buffer (in the test batch 0%, 0.003%, 0.01%, 0.03%, […] and 0.3% formulation).
Cofactor solution: 2 ml of glucose-6-phosphate (160 mmol)/MgCl2 (80 mmol)-mixture is added to 400 μl of a glucose-6-phosphate-dehydrogenase solution, then 15.6 mg of NADP and 13.4 mg of NAD are added.
Microsome solution: Intestinal microsomes (InVitro Technologies; protein content: 24 mg/ml; CYP450 content; 0.058 nmol/mg of protein) Thawed in a water bath at 37° C. (˜60 seconds) and diluted to a concentration of 5 mg/ml of protein with Na-phosphate buffer.
In each case, 170 μl/well of the formulation buffer and 5 μl/well of test substance solution of AE2 are introduced into the corresponding wells, whereby double values are set for each measuring time (0, 10, 20, 30, 45 and 60 minutes).
In each case, 250 μl of ice-cold MeOH is added at the 0-minute values. Immediately after, 25 μl of microsome solution and 50 μl of cofactor solution are added to all wells. The samples of the 0-minute values are stored without incubation at ˜−20° C. for about 24 hours. The other samples are incubated in each case for 10, 20, 30, 45 and 60 minutes at 37° C., and the dehydrogenation reaction is stopped after these times by the addition of 250 μl of ice-cold MeOH in each case. The samples are stored for about 24 hours before they are measured by HPLC at ˜−20° C. and they are centrifuged before HPLC analysis at 3000 rpm, whereby the supernatant is measured.

[2] = target: T2, Recombinant, Human Cytochrome P450 3A4 Isoenzyme (Homo sapiens, UniProt P08684)
T2 sequence (P08684 whole entry): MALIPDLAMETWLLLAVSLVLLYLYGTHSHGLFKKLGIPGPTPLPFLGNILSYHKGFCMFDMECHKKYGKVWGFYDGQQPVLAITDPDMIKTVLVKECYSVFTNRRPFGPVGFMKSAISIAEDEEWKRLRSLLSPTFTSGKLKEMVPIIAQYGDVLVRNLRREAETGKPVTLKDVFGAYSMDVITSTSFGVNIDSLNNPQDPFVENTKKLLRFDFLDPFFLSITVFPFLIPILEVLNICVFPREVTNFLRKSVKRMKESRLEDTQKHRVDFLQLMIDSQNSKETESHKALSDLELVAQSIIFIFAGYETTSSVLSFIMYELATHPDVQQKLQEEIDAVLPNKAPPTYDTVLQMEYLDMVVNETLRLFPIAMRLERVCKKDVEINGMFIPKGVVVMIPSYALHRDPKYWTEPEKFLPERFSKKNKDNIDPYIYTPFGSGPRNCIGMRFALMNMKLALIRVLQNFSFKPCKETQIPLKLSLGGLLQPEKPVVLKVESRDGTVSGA
Experimental: (§1) In this connection, the inhibition of the enzymes is characterized via the concentration (IC50, μg/ml) of the adjuvants, in which 50% of the respective isoenzymes are inhibited.
(§2) Stock solutions of the respective test substances or test formulations are produced in acetonitrile and diluted with incubation buffer (3 mg/ml in 2% acetonitrile in the batch); additional concentrations are produced by serial dilution. Concentration of the acetonitrile is at most 2% in all batches.
(§3) The incubations are set in 96-hole plate format with 200 μl of total volume in double values. The background batch controls the fluorescence of the batch without enzymes and formulations according to the invention, and the inherent fluorescence of the substances is determined in the buffer dilution. […]
(§4) The batches are started by adding the enzyme/substrate mixture, shaken for 30 or 45 minutes in an incubator at 37° C. and then interrupted with 50 μl of stop solution. The plates are briefly shaken, and the fluorescence intensity is measured in the plate-fluorescence reader at the wavelengths for excitation or emission.
(§5) The development of the fluorescent product forms the basis for the calculation. […] The IC50 value is calculated from the concentration-dependent inhibition.

[3] = target: T3, Recombinant, Human Cytochrome P450 2C19 Isoenzyme (Homo sapiens, UniProt P33261); assay: Cytochrome P450 inhibition test, in vitro CYP test (2C19); format: biochemical
T3 construct: purchased Gentest Corp., Woburn, Mass., USA
T3 sequence (P33261 whole entry): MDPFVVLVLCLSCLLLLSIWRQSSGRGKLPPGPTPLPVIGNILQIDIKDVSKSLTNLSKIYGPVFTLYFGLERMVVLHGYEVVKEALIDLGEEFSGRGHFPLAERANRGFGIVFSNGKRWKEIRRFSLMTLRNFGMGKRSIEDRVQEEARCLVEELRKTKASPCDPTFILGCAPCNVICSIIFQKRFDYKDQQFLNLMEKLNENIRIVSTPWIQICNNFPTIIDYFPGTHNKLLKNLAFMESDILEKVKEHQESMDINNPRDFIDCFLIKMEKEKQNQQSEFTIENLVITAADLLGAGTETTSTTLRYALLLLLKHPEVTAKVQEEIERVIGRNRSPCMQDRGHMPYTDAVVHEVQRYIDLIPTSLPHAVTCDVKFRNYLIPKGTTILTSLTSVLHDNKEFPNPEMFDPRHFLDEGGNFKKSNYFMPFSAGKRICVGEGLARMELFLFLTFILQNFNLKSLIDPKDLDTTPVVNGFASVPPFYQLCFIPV
Experimental: as §1, §2
The incubations are set in 96-hole plate format with 200 μl of total volume in double values. The background batch controls the fluorescence of the batch without enzymes and formulations according to the invention, and the inherent fluorescence of the substances is determined in the buffer dilution. The preparation of the dilutions and the pipetting diagram corresponds to the original instructions of the manufacturer of the test kit (Gentest Corp., Woburn, Mass., USA).
as §4, §5

[4] = target: T4, Recombinant, Human Cytochrome P450 2C9 Isoenzyme (Homo sapiens, UniProt P11712)
T4 sequence (P11712 whole entry): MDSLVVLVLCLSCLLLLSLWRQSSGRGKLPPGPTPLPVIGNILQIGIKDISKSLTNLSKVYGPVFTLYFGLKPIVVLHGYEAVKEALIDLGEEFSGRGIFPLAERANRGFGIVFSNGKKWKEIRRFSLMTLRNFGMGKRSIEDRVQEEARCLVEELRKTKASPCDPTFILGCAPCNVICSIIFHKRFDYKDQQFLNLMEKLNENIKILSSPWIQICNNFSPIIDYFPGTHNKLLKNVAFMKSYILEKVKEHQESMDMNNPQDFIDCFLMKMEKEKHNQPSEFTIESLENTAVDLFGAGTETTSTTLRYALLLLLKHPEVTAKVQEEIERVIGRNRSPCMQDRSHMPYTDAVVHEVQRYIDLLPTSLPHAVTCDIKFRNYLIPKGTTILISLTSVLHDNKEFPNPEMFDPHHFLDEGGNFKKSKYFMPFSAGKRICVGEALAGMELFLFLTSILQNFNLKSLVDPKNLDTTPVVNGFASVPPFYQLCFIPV
Experimental: as §1, §2, §3, §4, §5

[5] = target: T4, Recombinant, Human Cytochrome P450 2C9 Isoenzyme; assay: Cytochrome P450 inhibition test, in vitro CYP test (2C9); conditions: substrate 7-MFC, 45 minutes, 37° C.
Experimental: as §1, §2, §3, §4, §5

[6] = target: T2, Recombinant, Human Cytochrome P450 3A4 Isoenzyme; assay: Cytochrome P450 inhibition test, in vitro CYP test (3A4); conditions: substrate 7-BFC, 30 minutes, 37° C.
Experimental: as §1, §2, §3, §4, §5

CN(CCCCC[C@@H]1Cc2cc(O)ccc2[C@@H]2[C@@H]1[C@@H]1CC[C@H](O)[C@@]1(C)C[C@@H]2F)CCCSCCCC(F)(F)C(F)(F)F [AE1, 11β-fluoro-7α-{5-[N-methyl-N-3-(4,4,5,5,5-pentafluoropentylthio)-propylamino]-pentyl}-estra-1,3,5(10)-triene-3,17β-diol]
R ([1]; P-gp substrate): 2.43

CN(CCCCCCC(F)(F)C(F)(F)C(F)(F)C(F)(F)F)CCCCC[C@@H]1Cc2cc(O)ccc2[C@@H]2[C@@H]1[C@@H]1CC[C@H](O)[C@@]1(C)C[C@@H]2F [AE2, 11β-fluoro-7α-{5-[methyl-(7,7,8,8,9,9,10,10,10-nonafluorodecyl)amino]pentyl}estra-1,3,5(10)-triene-3,17β-diol]
logP (Lipophilicity (log P)): 5.9 | amount of genuine AE2 after 30 minutes in the microsome suspension (17β-HSD2; 0.0% Cremophor EL/Miglyol 812/Transcutol P (72T/20T/8T) in test batch): 64% and 66% | amount of genuine AE2 after 30 minutes in the microsome suspension (17β-HSD2; 0.003% Cremophor EL/Miglyol 812/Transcutol P (72T/20T/8T) in test batch): 70% and 71% | amount of genuine AE2 after 30 minutes in the microsome suspension (17β-HSD2; 0.01% Cremophor EL/Miglyol 812/Transcutol P (72T/20T/8T) in test batch): 75% and 76% | amount of genuine AE2 after 30 minutes in the microsome suspension (17β-HSD2; 0.03% Cremophor EL/Miglyol 812/Transcutol P (72T/20T/8T) in test batch): 89% and 83% | amount of genuine AE2 after 30 minutes in the microsome suspension (17β-HSD2; 0.1% Cremophor EL/Miglyol 812/Transcutol P (72T/20T/8T) in test batch): 109% and 114% | amount of genuine AE2 after 30 minutes in the microsome suspension (17β-HSD2; 0.3% Cremophor EL/Miglyol 812/Transcutol P (72T/20T/8T) in test batch): 106% and 109%

CCCCCCCC/C=C\CCCCCCCC(=O)OCC [Ethyl oleate, Ethyl oleate (EO)]
IC50 CYP-3A4 [2]: 117 µg/mL (≈ 0.377 mM) | IC50 CYP-2C19 [3]: 325 µg/mL (≈ 1.05 mM) | IC50 CYP-2C9 [4]: 195 µg/mL (≈ 0.628 mM)

CCOCCOCCO [Transcutol ® P, Ethoxydiglycol]
IC50 CYP-2C9 [5]: 1500 µg/mL (≈ 11.2 mM) | IC50 CYP-3A4 [6]: 755 µg/mL (≈ 5.63 mM) | Maximum R-Value ([1]; calcein AM, 485/535 nm, MATU cells, test solutions 0.3 to 33.3 μmol): 1.18 | IC50 CYP-2C19 [3]: 1400 µg/mL (≈ 10.4 mM)

C8-C12 triglycerides (MCT) [Miglyol ® 812]
IC50 CYP-2C19 [3]: 100 µg/mL

PEG-40-hydrogenated castor oil [Cremophor ® RH40]
IC50 CYP-2C19 [3]: 11 µg/mL

PEG-400-monoricinoleate [Estax ® 54]
IC50 CYP-2C19 [3]: 0.7 µg/mL

Polyethylene glycol-35-castor oil [Cremophor ® EL]
IC50 CYP-2C19 [3]: 10 µg/mL

Polysorbate 80 [Tween ® 80]
IC50 CYP-2C19 [3]: 8.4 µg/mL

Refined castor oil (RIZ)
IC50 CYP-2C19 [3]: >3000 µg/mL
